Some test systems named below: 786-0; CCRF-CEM; COLO 205; HCT-15; KM12; MDA-N; MOLT-4; NCI-H23; OVCAR-8; RXF 393; SF-539; SK-MEL-28; SK-OV-3; SR; SW-620; U-251; UACC-62; A498; Hs-578T.
What all share (experiment): NCI anticancer screen, dose series, 48 h

Each structure is given as a SMILES string.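 Briefly, cells in 96-well plates were exposed to five compound concentrations for 48 h, and endpoints were estimated by linear interpolation. GI50 is the concentration that inhibits growth by half.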 Activity calls are given as the source filed them. Cut-off read from the data, not from the text of the source: active = GI50 up to about 1.1 µM and inactive = higher.

Consider `CC#CC(O)(C(=O)OC1CC(C)N(C)C(C)(C)C1)C1CCCC1` (configuration not stated), for which the GI50 is > 100 µM (inactive) with 786-0; > 100 µM (inactive) in the test with CCRF-CEM; > 100 µM (inactive) with COLO 205; > 100 µM with HCT-15; > 100 µM (inactive) in the test on KM12; > 100 µM (inactive) in the test on MDA-N. Besides, the GI50 in the test with MOLT-4, in the test on NCI-H23, in the test with OVCAR-8, in the test with RXF 393, in the test with SF-539 and in the test on SK-MEL-28 was > 100 µM (inactive) throughout. The GI50 in the test on SK-OV-3, in the test with SR, in the test with SW-620, in the test on U-251 and in the test with UACC-62 was > 100 µM (inactive) in each case.

Regarding `O=C1c2ccccc2C(=O)N1n1c(Cc2ccc([N+](=O)[O-])cc2)n[nH]c1=O`, the GI50 in the test with 786-0 is > 100 µM (inactive); in the test with A498 it was > 100 µM (inactive); in the test on HCT-15, > 100 µM; in the test on KM12, > 100 µM (inactive); in the test on MDA-N it was > 100 µM (inactive); in the test on MOLT-4 it was > 100 µM (inactive). Also, the GI50 in the test with NCI-H23, in the test on OVCAR-8, in the test on RXF 393, in the test with SF-539, with SK-MEL-28 and in the test with SR was > 100 µM (inactive) throughout. Moreover, the values for the GI50 in the test on SW-620, in the test on U-251 and in the test with UACC-62 were > 100 µM (inactive), > 100 µM (inactive) and 36.3 µM (inactive), respectively.

Regarding `COc1cc(N(C)C)ccc1C=c1c2ccccc2n2c1cc(-c1ccccc1)[n+]2C`, the GI50 with 786-0 was 0.197 µM (active); in the test with A498, 1.65 µM (inactive); in the test with CCRF-CEM it was 0.208 µM (active); in the test with COLO 205, 0.151 µM (active); in the test on HCT-15 it was 0.979 µM; with KM12, 0.17 µM (active). Further, the GI50 in the test on MDA-N is 0.308 µM (active); with MOLT-4 it was 0.222 µM (active); in the test with NCI-H23 it was 0.237 µM (active); in the test on OVCAR-8 it was 0.163 µM (active); with RXF 393, 0.345 µM (active); in the test on SF-539, 0.0813 µM (active). Also, the GI50 was 0.802 µM (active) with SK-MEL-28; 0.347 µM (active) in the test on SK-OV-3; 0.276 µM (active) in the test on SW-620; 0.0581 µM (active) in the test on U-251; 0.582 µM (active) in the test with UACC-62.

Regarding `Nc1ccc2nc(-c3cccc(Cl)c3)cc(O)c2c1`, the GI50 in the test with 786-0 was 4.24 µM (inactive); in the test on CCRF-CEM, 2.14 µM (inactive); in the test with COLO 205 it was 4.81 µM (inactive); in the test on HCT-15 it was 3.19 µM; with Hs-578T, 6.79 µM (inactive); in the test on KM12 it was 4.23 µM (inactive). For the same molecule, the GI50 with MOLT-4 was 3.55 µM (inactive); in the test with NCI-H23, 5.79 µM (inactive); in the test on OVCAR-8, 18 µM (inactive); in the test on SF-539, 2.11 µM (inactive); in the test on SK-MEL-28, 7.91 µM (inactive); in the test with SK-OV-3, 4.82 µM (inactive). Moreover, the figures for the GI50 in the test with SW-620, in the test with U-251 and in the test on UACC-62 were 3.55 µM (inactive), 3.2 µM (inactive) and 3.14 µM (inactive), respectively.

`O=c1cc(N2CCCC2)[nH]c(=O)n1Cc1ccccc1`: the GI50 in the test with 786-0 was > 100 µM (inactive); in the test on CCRF-CEM, > 100 µM (inactive); with COLO 205, > 100 µM (inactive); in the test with HCT-15, > 100 µM; in the test on KM12 it was > 100 µM (inactive); with MOLT-4, > 100 µM (inactive). In addition, the GI50 in the test with NCI-H23, in the test with OVCAR-8, with SF-539, with SK-MEL-28, in the test on SR and in the test on SW-620 was > 100 µM (inactive) throughout. Moreover, the GI50 in the test with U-251 is > 100 µM (inactive).

`Nc1nc(N)c2ncn(Cc3ccccc3CCl)c2n1`: the GI50 with 786-0 was > 100 µM (inactive); with A498 it was > 100 µM (inactive); in the test on CCRF-CEM, 88.1 µM (inactive); in the test on COLO 205 it was > 100 µM (inactive); in the test on HCT-15, > 100 µM; in the test on Hs-578T, > 100 µM (inactive). Also, the GI50 with KM12, in the test on MOLT-4, in the test with NCI-H23, with OVCAR-8, in the test on SF-539 and in the test with SK-MEL-28 was > 100 µM (inactive) throughout. In addition, the GI50 was > 100 µM (inactive) with SK-OV-3; 8.51 µM (inactive) in the test on SR; > 100 µM (inactive) in the test with SW-620; > 100 µM (inactive) in the test with U-251; > 100 µM (inactive) in the test with UACC-62.

As to `CCN(CC)C(=S)N/N=C/c1ccccn1`, the GI50 in the test on 786-0 is < 0.01 µM (active); in the test with CCRF-CEM, < 0.01 µM (active); in the test on COLO 205, < 0.01 µM (active); in the test with HCT-15 it was < 0.01 µM; with MDA-N, 0.166 µM (active); in the test with MOLT-4, < 0.01 µM (active). Besides, the GI50 with NCI-H23 was < 0.01 µM (active); in the test on OVCAR-8, < 0.01 µM (active); in the test with SF-539, < 0.0382 µM (active); in the test on SK-MEL-28, 0.187 µM (active); in the test on SK-OV-3, < 0.0192 µM (active); with SW-620, < 0.01 µM (active). In addition, the GI50 was < 0.01 µM (active) in the test with U-251 and < 0.0328 µM (active) in the test with UACC-62.

For the molecule `O=C(NNS(=O)(=O)c1ccccc1)c1csc(NC(=S)NC2CCCCC2)n1`, the GI50 is 15.4 µM (inactive) with 786-0; 80.5 µM (inactive) with A498; 39.6 µM (inactive) in the test with CCRF-CEM; 19.3 µM (inactive) in the test with COLO 205; 41.6 µM with HCT-15; 36.3 µM (inactive) in the test on KM12. For the same molecule, the GI50 in the test with MDA-N was 18.5 µM (inactive); with MOLT-4, 36.5 µM (inactive); in the test on NCI-H23, 48 µM (inactive); with OVCAR-8, 33.5 µM (inactive); with SF-539, 37.5 µM (inactive); in the test on SK-OV-3, 42.2 µM (inactive). The GI50 in the test on SR is 36.9 µM (inactive); in the test with SW-620, 25 µM (inactive); with U-251 it was 33.5 µM (inactive); with UACC-62, 23.7 µM (inactive).

Consider `COC(=O)C1(Cc2cccc(Cl)c2)CCCCCCN1C(=O)c1ccccc1` (configuration not stated), for which the GI50 with 786-0 was 13.2 µM (inactive); in the test with A498, 15.4 µM (inactive); with CCRF-CEM, 13.1 µM (inactive); with COLO 205, 15.5 µM (inactive); with HCT-15 it was 11.5 µM; in the test with MDA-N, 16.5 µM (inactive). Besides, the GI50 is 8.89 µM (inactive) in the test on MOLT-4; 17.2 µM (inactive) with NCI-H23; 16.6 µM (inactive) with OVCAR-8; 14.9 µM (inactive) in the test on SK-MEL-28; 19.2 µM (inactive) in the test on SK-OV-3; 13.9 µM (inactive) with SR. The GI50 was 18.2 µM (inactive) in the test with SW-620, 15.4 µM (inactive) with U-251 and 11.1 µM (inactive) in the test on UACC-62.

As to `Cc1cc2c(c(C(N)=O)c1C)-c1cccc(Cl)c1C2=O`, the GI50 was > 100 µM (inactive) with 786-0; > 100 µM (inactive) with A498; > 100 µM (inactive) in the test on CCRF-CEM; > 100 µM (inactive) in the test on COLO 205; > 100 µM in the test with HCT-15; > 100 µM (inactive) in the test with KM12. For the same molecule, the GI50 was 57.9 µM (inactive) in the test on MOLT-4; > 100 µM (inactive) in the test with NCI-H23; > 100 µM (inactive) with OVCAR-8; > 100 µM (inactive) with SF-539; > 100 µM (inactive) with SK-MEL-28; > 100 µM (inactive) in the test on SK-OV-3. The GI50 in the test with SW-620, with U-251 and in the test on UACC-62 was > 100 µM (inactive) each time.

On to `COCN1C(=O)[C@@H]2CCCN2C(=O)c2cc([N+](=O)[O-])ccc21`, for which the GI50 was > 100 µM (inactive) in the test on 786-0; 43 µM (inactive) in the test with A498; 81.3 µM (inactive) in the test on COLO 205; > 100 µM with HCT-15; > 100 µM (inactive) in the test on Hs-578T; > 100 µM (inactive) with KM12. Further, the GI50 in the test with NCI-H23 is 86.7 µM (inactive); with OVCAR-8 it was > 100 µM (inactive); with RXF 393, 19 µM (inactive); in the test on SF-539 it was > 100 µM (inactive); in the test with SK-MEL-28, > 100 µM (inactive); in the test with SK-OV-3, 44.7 µM (inactive). Besides, the figures for the GI50 with SW-620, with U-251 and with UACC-62 were 65.8 µM (inactive), 42 µM (inactive) and 85.7 µM (inactive), respectively.

Regarding `COc1cc(Br)cc2cc(C3=CSC4=NCCN34)c(=O)oc12`, the GI50 in the test on 786-0 is 18.4 µM (inactive); in the test with CCRF-CEM, 25.8 µM (inactive); with COLO 205, 20.7 µM (inactive); in the test on HCT-15, 17.2 µM; with KM12, 20 µM (inactive); in the test with MDA-N, 18.5 µM (inactive). In addition, the GI50 was 20 µM (inactive) in the test on MOLT-4; 20.1 µM (inactive) in the test on NCI-H23; 17.8 µM (inactive) with OVCAR-8; 17.5 µM (inactive) with RXF 393; 19.9 µM (inactive) in the test on SF-539; 29.5 µM (inactive) in the test with SK-MEL-28. Further, the GI50 in the test on SK-OV-3 is 27.9 µM (inactive); with SR, 21.9 µM (inactive); in the test with SW-620, 25.3 µM (inactive); with U-251 it was 18.1 µM (inactive); with UACC-62, 17.8 µM (inactive).

As to `CC(=O)n1c2ccc(Br)cc2c2nc3ccccc3nc21`, the GI50 in the test on 786-0 was > 100 µM (inactive); in the test on CCRF-CEM it was > 100 µM (inactive); in the test on COLO 205 it was > 100 µM (inactive); in the test with HCT-15, > 100 µM; with KM12, > 100 µM (inactive); in the test with MDA-N, > 100 µM (inactive). In addition, the GI50 with MOLT-4, in the test on NCI-H23, in the test on OVCAR-8, in the test with RXF 393, in the test on SF-539 and with SK-MEL-28 was > 100 µM (inactive) throughout. Further, the GI50 in the test with SR, in the test on SW-620, with U-251 and in the test on UACC-62 was > 100 µM (inactive) throughout.

For the origin of these results see ChEMBL document CHEMBL1201862, “PubChem BioAssay data set” (2004).
